Data taken from patent US5196352A, “New FK-506 cytosolic binding protein” (Merck & Co., Inc., priority 1991, dated 1993).

How the values were obtained:
[1] = molecular target: purified calf thymus cyclophilin (Bos taurus, UniProt P62935); assay: LH-20 binding assay with purified cyclophilin; settings: for Bound (cpm), specifically bound: cyclophilin, 100 ng, 6.0 nM labeled compound
JURKAT cytosol [2] = assay: LH-20 binding assay with JURKAT cytosol; set-up: species or system human; settings: for Bound (cpm), specifically bound: 0.5 nM labeled compound; for effect of heating on binding to JURKAT cytosol (in words): heated cytosol
[3] = molecular target: HCB protein PPIase activity (Homo sapiens, UniProt P62942); assay: PPIase assay of HCB protein (N-succinyl-Ala-Ala-Pro-Phe-p-nitroanilide, chymotrypsin coupled)
HCB protein PPIase activity, sequence (P62942 whole entry): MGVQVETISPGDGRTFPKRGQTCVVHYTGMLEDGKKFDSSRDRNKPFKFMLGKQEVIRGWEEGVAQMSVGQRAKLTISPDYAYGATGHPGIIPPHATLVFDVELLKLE
Procedure: (§1) Briefly, the PPIase assay measures the "cis" to "trans" isomerization of the proline-alanine peptide bond in the peptide, N-succinyl-Ala-Ala-Pro-Phe-p-nitroanilide. When in the "trans" form, the peptide is readily cleaved by chymotrypsin and the appearance of p-nitroanilide can be quantitated spectrophotometrically at 405 nm.
(§2) After 1.0 minutes, 30 ul of 2.0 mg/ml chymotrypsin (Sigma) in 100 mM Tris-HCl, pH 7.8 was added. After brief mixing, the absorbance was monitored at 405 nm in either a Perkin-Elmer 4B or Beckman DU 68 spectrophotometer. Absorbance measurements were taken at 3 or 5 second intervals for 4 minutes. A plot of Abs405 [steady state]--Abs405[time=t] versus time was made on semi-log paper. From the straight line, the time constant for Abs405 [steady state]--Abs405 [time=t] to fall by l/e was calculated. The reciprocal of this constant yields the rate constant k.

[4] = test system: low molecular weight cytosolic component; assay: Direct binding of [3H]FK-506 to JURKAT cytosol, complex by HPLC gel filtration, competition with unlabeled compound; set-up: species or system human; settings: 200 fold molar excess of unlabeled compound; 16 nM [3H]FK-506, 200 μg cytosol protein
Procedure: A cell-free extract was prepared from JURKAT cells by lysing […] cells in 0.5 ml of 10 mM Tris-HCl, pH 7.5 containing 1 mM MgCl as described in the legend for FIG. 3.

[5] = test system: cyclophilin PPIase activity; settings: concentration of 1 uM
Procedure: as §1, §2

[6] = test system: IL-2 secretion in JURKAT cells; assay: Inhibition of IL-2 secretion in JURKAT cells stimulated with PMA and ionomycin (ELISA); assay type: cell-based, human
Procedure: Inhibition of IL-2 secretion in JURKAT cells stimulated with PMA and ionomycin by FK-506 and [^3 H]dihydro FK-506. JURKAT cells (equivalent to those available from the ATCC, supra) were cultured in RPMI 1640 media (Cellgro, Mediatech, Wash. D.C.) containing 1% Pen/Strep (Gibco), 1 mM Glutamine and 10% heat-inactivated fetal calf serum (Hazleton). For assay of IL-2 secretion by JURKAT cells, cells were cultured for 16 hr. in 96-well microtiter plates (Costar) at […] cells/ml in the above media containing 10 ng/ml of PMA (Sigma) and 5 μM ionomycin (Calbiochem) along with the concentrations of FK-506 or [^3 H]FK-506 indicated.

JURKAT cytosol [7] = molecular target: T1, JURKAT cytosol (Homo sapiens, UniProt P62942); assay: LH-20 binding assay with JURKAT cytosol
T1 construct: endogenous in cells; host or cells: JURKAT (human T-cell line), crude cytosol
T1 sequence (P62942 2-108): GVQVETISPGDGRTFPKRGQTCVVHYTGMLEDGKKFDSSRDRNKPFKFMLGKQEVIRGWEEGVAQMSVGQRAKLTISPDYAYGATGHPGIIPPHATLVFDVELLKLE

[8] = JURKAT cytosol 40 μg heated 56 C., 15 min.

purified calf thymus cyclophilin, sequence (P62935 whole entry): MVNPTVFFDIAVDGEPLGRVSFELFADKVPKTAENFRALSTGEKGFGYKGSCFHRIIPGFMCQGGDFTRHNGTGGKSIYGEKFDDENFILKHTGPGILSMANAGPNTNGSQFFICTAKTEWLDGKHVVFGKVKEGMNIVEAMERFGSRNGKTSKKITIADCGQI

Compound	Bound (cpm), specifically bound [1]	Bound (cpm), specifically bound (JURKAT cytosol [2]; [8])	Bound (cpm), specifically bound (JURKAT cytosol [2]; JURKAT cytosol, 40 μg)	effect of heating on binding to JURKAT cytosol (in words) (JURKAT cytosol [2])	inhibition of HCB protein PPIase activity (in words) [3]	inhibition of the formation of the [^3 H]FK-506 complex [4]	inhibition of cyclophilin PPIase activity (in words) [5]	IC50 ([6]; Homo sapiens, Jurkat, 16 h, read-out: concentration of inhibiting IL-2 secretion in JURKAT)	inhibition of IL-2 secretion in JURKAT cells (in words) ([6]; PMA and ionomycin)	potency as inhibitor of IL-2 secretion, times less potent than the parent compound ([6]; relative to FK-506, JURKAT cells, PMA and ionomycin)	specific binding to purified calf thymus cyclophilin (in words) ([1]; LH-20 assay)	Kd (JURKAT cytosol [7])
[3H]C(C)C([3H])C[C@@H](C)[C@@H](O)[C@H]1C(=O)N[C@@H](CC)C(=O)N(C)CC(=O)N(C)[C@@H](CC(C)C)C(=O)N[C@@H](C(C)C)C(=O)N(C)[C@@H](CC(C)C)C(=O)N[C@@H](C)C(=O)N[C@H](C)C(=O)N(C)[C@@H](CC(C)C)C(=O)N(C)[C@@H](CC(C)C)C(=O)N(C)[C@@H](C(C)C)C(=O)N1C (some centres unmarked) [[^3 H]CsA, [^3 H]-dihydro CsA]	20,988 cpm	0 cpm	5,988 cpm	completely aborgated								
CCC[C@@H]1/C=C(\C)C[C@H](C)C[C@H](OC)[C@H]2O[C@@](O)(C(=O)C(=O)N3CCCC[C@H]3C(=O)O[C@H](/C(C)=C/[C@@H]3CC[C@@H](O)[C@H](OC)C3)[C@H](C)[C@@H](O)CC1=O)[C@H](C)C[C@@H]2OC [Dihydro-FK-506]					specifically inhibits							
C=CC[C@@H]1/C=C(\C)C[C@H](C)C[C@H](OC)[C@H]2O[C@@](O)(C(=O)C(=O)N3CCCC[C@H]3C(=O)O[C@H](/C(C)=C/[C@@H]3CC[C@@H](O)[C@H](OC)C3)[C@H](C)[C@@H](O)CC1=O)[C@H](C)C[C@@H]2OC [FK-506]					specifically inhibited	90%	no effect					
[3H]CC([3H])C[C@@H]1/C=C(\C)C[C@H](C)C[C@H](OC)[C@H]2O[C@@](O)(C(=O)C(=O)N3CCCC[C@H]3C(=O)O[C@H](/C(C)=C/[C@@H]3CC[C@@H](O)[C@H](OC)C3)[C@H](C)[C@@H](O)CC1=O)[C@H](C)C[C@@H]2OC (some centres unmarked) [[^3 H]FK-506, [^3 H]-dihydro FK-506]	0 cpm	15,315 cpm	13,585 cpm	heat stable				1.1 nM	potent inhibitor	5 times	could not detect specific binding	4 nM
